Each block holds one compound with its values, some of them ahead of it.
Columns and labels:
BTK kinase = target: T1, BTK kinase (Homo sapiens, UniProt Q06187); assay: BTK kinase activity inhibition assay (ADP-Glo); assay type: biochemical; details: ATP 50 μM
T1 construct: purchased Invitrogen PV3363
Protocol: The BTK kinase (purchased from Invitrogen, No.: PV3363) was diluted with reaction buffer (40 mM Tris-HCl, pH 7.5; 20 mM MgCl2, 0.1 mg/ml BSA; 1 mM DTT; 2 mM MnCl2) to 2 times of the final concentration (which is 1.1 ng/μL) and added with 5 μL/well to a 96-well plate. The compounds of the present invention were serial diluted with deionized water to four times (i.e., 40 μM, 4 μM, 0.4 μM, 80 nM, 16 nM, 3.2 nM, respectively) of the final concentrations (10 μM, 1 μM, 0.1 μM, 20 nM, 4 nM, 0.8 nM, respectively), and added at 2.5 μL/well to the test wells of the 96-well plate. After incubation at 25° C. for 10 minutes, ATP (50 μM) (purchased from Promega, No.: V9102) and 0.2 μg/μL of Poly E4Y1 (purchased from Sigma, No.: P0275-25MG) were added with 2.5 μL/well and incubated at 25° C. for 120 minutes. After the reaction was completed, 10 μL of the ADP-Glo reagent (ADP-Glo™ kinase assay kit, purchased from Promega, No.: V9102) was added to each well, and reacted at 25° C. for 40 minutes. Then 20 μL of the ADP-Glo kinase detection reagent was added to each well and reacted at 25° C. for 30 minutes. The kinase activity was detected by luminescence using the ADP-Glo kinase assay kit according to the manufacture's instruction, and IC50 values of the compounds of the present invention were calculated.

JAK3 kinase = target: T2, JAK3 kinase (Homo sapiens, UniProt P52333); assay: JAK3 kinase activity inhibition assay (ADP-Glo); assay type: biochemical; details: ATP 10 μM
T2 construct: purchased SignalChem J03-11G
T2 sequence (P52333 781-1124 limits assumed): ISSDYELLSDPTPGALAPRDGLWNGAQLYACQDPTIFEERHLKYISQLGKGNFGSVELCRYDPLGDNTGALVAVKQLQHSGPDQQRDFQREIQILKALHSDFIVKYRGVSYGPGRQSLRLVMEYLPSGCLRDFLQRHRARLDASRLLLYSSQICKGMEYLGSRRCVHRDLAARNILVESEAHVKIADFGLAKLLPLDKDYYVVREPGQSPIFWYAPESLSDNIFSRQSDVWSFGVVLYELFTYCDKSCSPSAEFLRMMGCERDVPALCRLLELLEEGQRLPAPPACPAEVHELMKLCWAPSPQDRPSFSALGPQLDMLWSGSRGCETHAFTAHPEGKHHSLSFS
Protocol: The JAK3 kinase (purchased from SignalChem, No.: J03-11G) was diluted with reaction buffer (40 mM Tris-HCl, pH 7.5; 20 mM MgCl2, 0.1 mg/ml BSA; 1 mM DTT) to 2 times of the final concentration (which is 0.5 ng/μL) and added with 5 μL/well to a 96-well plate. The compounds of the present invention were serial diluted with deionized water to four times (i.e., 40 μM, 4 μM, 0.4 μM, 80 nM, 16 nM, 3.2 nM, respectively) of the final concentrations (10 μM, 1 μM, 0.1 μM, 20 nM, 4 nM, 0.8 nM, respectively), and added with 2.5 μL/well to the test wells of the 96-well plate. After incubation at 25° C. for 10 minutes, 10 μM of ATP (purchased from Promega, No.: V9102) and 0.2 μg/μL of Poly E4Y1 (purchased from Sigma, No.: P0275-25MG) were added at 2.5 μL/well and reacted at 25° C. for 60 minutes. After the reaction was completed, 10 μL of the ADP-Glo reagent (ADP-Glo™ kinase assay kit, purchased from Promega, No.: V9102) was added to each well and reacted at 25° C. for 40 minutes. Then 20 μL of the ADP-Glo kinase detection reagent was added to each well and reacted at 25° C. for 30 minutes. The kinase activity was detected by luminescence using the ADP-Glo kinase assay kit according to the manufacture's instruction, and IC50 values of the compounds of the present invention were calculated.

CTLL-2 cells = assay: IL-2 induced CTLL-2 cell proliferation assay (CCK-8); assay type: cell-based; details: Mus musculus, IL-2 induced proliferation, 24 hours
Protocol: The compounds of the present invention were serial diluted with RPMI-1640 complete medium (purchased from Gibco, No.: 22440) to three times (i.e., 3 μM, 0.6 μM, 120 nM, 24 nM, 4.8 nM, 0.96 nM, respectively) of the final concentrations (1 μM, 0.2 μM, 40 nM, 8 nM, 1.6 nM, 0.32 nM, respectively), and added at 50 μL/well to the test wells of a 96-well plate. Control wells with IL-2 (referred to as IL-2^+) (IL-2 was purchased from R & D, No.: 402-ML-020/CF) and without IL-2 (referred to as IL-2^−) (with addition of 50 μL of the medium). CTLL-2 cells (purchased from ATCC, No.: TIB-214) at the logarithmic growth phase were rinsed with PBS buffer (pH 7.2), then resuspended in RPMI-1640 complete medium without IL-2, and seeded at 50000 cells/50 μL/well in the 96-well plate. The plate was placed at 37° C., 5% CO2 and pre-incubated for 1 hour. Then, to the test wells and the IL-2^+ control well RPMI-1640 complete medium containing IL-2 (50 μL/well) was added, while to the IL-2^− control well RPMI-1640 complete medium without IL-2 (50 μL/well) was added. The cells were stimulated for 24 hours at 37° C., 5% CO2. After this, the 96-well plate was taken out from the incubator. […] Absorption was determined at 450 nm of wavelength, and IC50 values of the compounds of the present invention were thereby calculated.

T1 sequence (Q06187 whole entry): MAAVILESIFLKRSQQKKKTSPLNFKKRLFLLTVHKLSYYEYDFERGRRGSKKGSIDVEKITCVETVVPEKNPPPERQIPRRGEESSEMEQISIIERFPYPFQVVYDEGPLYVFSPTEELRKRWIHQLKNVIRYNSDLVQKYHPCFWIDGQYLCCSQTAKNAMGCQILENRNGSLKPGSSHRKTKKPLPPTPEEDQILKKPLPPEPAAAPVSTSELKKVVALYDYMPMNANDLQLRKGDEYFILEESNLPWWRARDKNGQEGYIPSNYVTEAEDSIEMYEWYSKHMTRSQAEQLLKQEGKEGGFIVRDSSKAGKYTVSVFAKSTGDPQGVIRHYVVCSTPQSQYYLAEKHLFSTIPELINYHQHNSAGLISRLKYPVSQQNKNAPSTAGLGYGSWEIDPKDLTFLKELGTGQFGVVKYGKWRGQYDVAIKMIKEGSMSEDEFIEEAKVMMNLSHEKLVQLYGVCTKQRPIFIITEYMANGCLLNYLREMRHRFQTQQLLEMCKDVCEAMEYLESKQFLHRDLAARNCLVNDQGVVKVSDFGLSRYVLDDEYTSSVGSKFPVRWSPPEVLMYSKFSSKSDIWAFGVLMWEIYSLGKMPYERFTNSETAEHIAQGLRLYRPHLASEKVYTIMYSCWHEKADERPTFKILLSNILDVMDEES

Compound: C=CC(=O)N1CCC[C@@H](Nc2nc(Nc3cnn(C)c3)nc3ccoc23)C1 [Example 95]
IC50 (BTK kinase): ≤ 50 nM
IC50 (JAK3 kinase): 10 to 100 nM

Compound: C=CC(=O)N1CCC[C@@H](Nc2nc(Nc3cc(C)ns3)nc3ccoc23)C1 [Example 96]
IC50 (BTK kinase): ≤ 50 nM
IC50 (JAK3 kinase): ≤ 10 nM

Compound: C=CC(=O)N1CC(CNc2nc(Nc3cnn(C)c3)nc3sccc23)C1 [Example 99, 1-(3-(((2-((1-methyl-1H-pyrazol-4-yl)amino)thieno[2,3-d]pyrimidin-4-yl)amino)methyl)azetidin-1-yl)prop-2-en-1-one]
IC50 (BTK kinase): 50 to 100 nM
IC50 (JAK3 kinase): 10 to 100 nM

Compound: C=CC(=O)N1CC[C@@H](Nc2nc(Nc3cnn(C)c3)nc3sccc23)C1 [Example 101]
IC50 (BTK kinase): 50 to 100 nM
IC50 (JAK3 kinase): 100 to 1000 nM

Compound: C=CC(=O)N1CC[C@@H](Nc2nc(Nc3cc(C)ns3)nc3sccc23)C1 [Example 102]
IC50 (BTK kinase): ≤ 50 nM
IC50 (JAK3 kinase): 10 to 100 nM

Compound: C=CC(=O)N1CCC[C@@H](Nc2nc(Nc3cnn(C)c3)nc3sccc23)C1 [Example 103]
IC50 (BTK kinase): ≤ 50 nM
IC50 (JAK3 kinase): 100 to 1000 nM

Compound: C=CC(=O)N1CCC[C@@H](Nc2nc(Nc3cc(C)ns3)nc3sccc23)C1 [Example 104]
IC50 (BTK kinase): ≤ 50 nM
IC50 (JAK3 kinase): 10 to 100 nM

Compound: C=CC(=O)N1CC[C@@H](N(C)c2nc(Nc3cnn(C)c3)nc3ccsc23)C1 [Example 105, (R)-1-(3-(methyl(2-((1-methyl-1H-pyrazol-4-yl)amino)thieno[3,2-d]pyrimidin-4-yl)amino)pyrrolidin-1-yl)prop-2-en-1-one]
IC50 (BTK kinase): ≤ 50 nM
IC50 (JAK3 kinase): 10 to 100 nM

Compound: C=CC(=O)N1CC(CNc2nc(Nc3cnn(C(C)C)c3)nc3ccsc23)C1 [Example 108]
IC50 (BTK kinase): ≤ 50 nM
IC50 (JAK3 kinase): ≤ 10 nM

Compound: C=CC(=O)N1CC(CNc2nc(Nc3cnn(C4CCC4)c3)nc3ccsc23)C1 [Example 111]
IC50 (BTK kinase): ≤ 50 nM
IC50 (JAK3 kinase): 10 to 100 nM

Compound: C=CC(=O)N1CC(CNc2nc(Nc3cnn(C4CCCC4)c3)nc3ccsc23)C1 [Example 112]
IC50 (BTK kinase): ≤ 50 nM
IC50 (JAK3 kinase): 10 to 100 nM

Compound: C=CC(=O)N1CC(CNc2nc(Nc3cnn(COC)c3)nc3ccsc23)C1 [Example 114]
IC50 (BTK kinase): ≤ 50 nM
IC50 (JAK3 kinase): 10 to 100 nM

Compound: C=CC(=O)N1CC(CNc2nc(Nc3cnn(CCOC)c3)nc3ccsc23)C1 [Example 115]
IC50 (BTK kinase): ≤ 50 nM
IC50 (JAK3 kinase): 10 to 100 nM

Compound: C=CC(=O)N1CC(CNc2nc(Nc3cnn(C(C)=O)c3)nc3ccsc23)C1 [Example 116]
IC50 (BTK kinase): ≤ 50 nM
IC50 (JAK3 kinase): 10 to 100 nM

Second part, led by results:

IC50 (BTK kinase): ≤ 50 nM
IC50 (JAK3 kinase): 10 to 100 nM
Compound: C=CC(=O)N1CC[C@@H](Nc2nc(Nc3cnn(CC)c3)nc3ccsc23)C1 [Example 118]

IC50 (BTK kinase): ≤ 50 nM
IC50 (JAK3 kinase): 10 to 100 nM
Compound: C=CC(=O)N1CC[C@@H](Nc2nc(Nc3cnn(C(C)C)c3)nc3ccsc23)C1 [Example 119]

IC50 (BTK kinase): ≤ 50 nM
IC50 (JAK3 kinase): 10 to 100 nM
Compound: C=CC(=O)N1CC[C@@H](Nc2nc(Nc3cnn(C4CCC4)c3)nc3ccsc23)C1 [Example 120]

IC50 (BTK kinase): ≤ 50 nM
IC50 (JAK3 kinase): 10 to 100 nM
Compound: C=CC(=O)N1CC[C@@H](Nc2nc(Nc3cnn(C4CCCC4)c3)nc3ccsc23)C1 [Example 121]

IC50 (BTK kinase): ≤ 50 nM
IC50 (JAK3 kinase): ≤ 10 nM
Compound: C=CC(=O)N1CC[C@@H](Nc2nc(Nc3cnn(CCOC)c3)nc3ccsc23)C1 [Example 122]

IC50 (BTK kinase): ≤ 50 nM
IC50 (JAK3 kinase): 10 to 100 nM
Compound: C=CC(=O)N1CC[C@@H](Nc2nc(Nc3cnn(CCCOC)c3)nc3ccsc23)C1 [Example 123]

IC50 (BTK kinase): ≤ 50 nM
IC50 (JAK3 kinase): 10 to 100 nM
Compound: C=CC(=O)N1CC[C@@H](Nc2nc(Nc3cnn(CCN(C)C)c3)nc3ccsc23)C1 [Example 124]

IC50 (BTK kinase): ≤ 50 nM
IC50 (JAK3 kinase): ≤ 10 nM
Compound: C=CC(=O)N1CC[C@@H](Nc2nc(Nc3cnn(C4CCOCC4)c3)nc3ccsc23)C1 [Example 125]

IC50 (BTK kinase): ≤ 50 nM
IC50 (JAK3 kinase): 10 to 100 nM
Compound: C=CC(=O)N1CC[C@@H](Nc2nc(Nc3cnn(CCN4CCOCC4)c3)nc3ccsc23)C1 [Example 126]

IC50 (BTK kinase): ≤ 50 nM
IC50 (JAK3 kinase): ≤ 10 nM
Compound: C=CC(=O)N1CCC[C@@H](Nc2nc(Nc3cnn(CC)c3)nc3ccsc23)C1 [Example 127]

IC50 (BTK kinase): ≤ 50 nM
IC50 (JAK3 kinase): 10 to 100 nM
Compound: C=CC(=O)N1CCC[C@@H](Nc2nc(Nc3cnn(C(C)C)c3)nc3ccsc23)C1 [Example 128]

IC50 (BTK kinase): ≤ 50 nM
IC50 (JAK3 kinase): 10 to 100 nM
Compound: C=CC(=O)N1CCC[C@@H](Nc2nc(Nc3cnn(C4CCC4)c3)nc3ccsc23)C1 [Example 129]

IC50 (BTK kinase): ≤ 50 nM
IC50 (JAK3 kinase): 10 to 100 nM
Compound: C=CC(=O)N1CCC[C@@H](Nc2nc(Nc3cnn(C4CCCC4)c3)nc3ccsc23)C1 [Example 130]

IC50 (BTK kinase): ≤ 50 nM
IC50 (JAK3 kinase): 10 to 100 nM
Compound: C=CC(=O)N1CCC[C@@H](Nc2nc(Nc3cnn(CCOC)c3)nc3ccsc23)C1 [Example 131]

IC50 (BTK kinase): ≤ 50 nM
IC50 (JAK3 kinase): ≤ 10 nM
Compound: C=CC(=O)N1CCC[C@@H](Nc2nc(Nc3cc(C)ns3)nn3cccc23)C1 [Example 134, (R)-1-(3-((2-((3-methyl-isothiazol-5-yl)amino)pyrrolo[2,1-f][1,2,4]triazin-4-yl)amino)piperidin-1-yl)prop-2-en-1-one]
IC50 (CTLL-2 cells): ≤ 100 nM

IC50 (BTK kinase): ≤ 50 nM
IC50 (JAK3 kinase): 10 to 100 nM
Compound: C=CC(=O)N1CCC[C@@H](Nc2nc(Nc3cnn(C)c3)nn3cccc23)C1 [Example 135]

IC50 (BTK kinase): ≤ 50 nM
IC50 (JAK3 kinase): ≤ 10 nM
Compound: C=CC(=O)N1CC[C@@H](Nc2nc(Nc3cc(C)ns3)nn3cccc23)C1 [Example 137]
IC50 (CTLL-2 cells): 100 to 1000 nM

IC50 (BTK kinase): ≤ 50 nM
IC50 (JAK3 kinase): 10 to 100 nM
Compound: C=CC(=O)N1CC[C@@H](Nc2nc(Nc3cnn(C)c3)nn3cccc23)C1 [Example 138]

Source: patent publication US10273242B2, “Compound inhibiting activities of BTK and/or JAK3 kinases” (BEIJING HANMI PHARMACEUTICAL CO., LTD., priority 2013, dated 2019)
